Each compound was assayed against IDH1 R132H (Homo sapiens, UniProt O75874, R132H) (assay: Assay for IDH1 R132H inhibitors (NADPH/aKG, resazurin detection)). Details: Table 3; enzyme assay, 50 minutes at room temperature; read-out: IC50 (IDH1 R132H Inhibition).
Format: biochemical
How it was run: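 Compound added to substrate mix (8 uM NADPH, 2 mM aKG), then enzyme mix (0.2 μg/ml IDH1 R132H); 50 min RT in 20 mM Tris pH 7.5, 150 mM NaCl, 10 mM MgCl2, 0.03% BSA. Resazurin detection mix (30 μM) 5 min RT; resorufin fluorescence Ex544/Em590.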

Chain of IDH1 R132H (O75874 whole entry R132H): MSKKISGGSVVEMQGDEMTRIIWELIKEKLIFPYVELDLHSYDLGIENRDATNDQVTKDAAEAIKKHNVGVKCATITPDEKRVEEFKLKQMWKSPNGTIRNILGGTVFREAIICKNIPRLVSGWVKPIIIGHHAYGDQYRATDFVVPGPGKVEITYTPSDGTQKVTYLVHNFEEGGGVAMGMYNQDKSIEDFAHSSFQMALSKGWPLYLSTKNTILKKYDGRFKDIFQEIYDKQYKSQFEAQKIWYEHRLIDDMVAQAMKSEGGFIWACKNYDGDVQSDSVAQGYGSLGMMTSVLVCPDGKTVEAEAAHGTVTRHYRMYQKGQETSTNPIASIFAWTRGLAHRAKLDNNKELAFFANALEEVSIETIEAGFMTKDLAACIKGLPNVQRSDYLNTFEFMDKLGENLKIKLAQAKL

`COc1ccccc1-c1cc(C#N)c(N2CCN(C(=O)c3ccoc3)[C@H](C)C2)nc1C(C)C` [Compound 175, (R)-2-(4-(furan-3-carbonyl)-3-methylpiperazin-1-yl)-6-isopropyl-5-(2-methoxyphenyl)nicotinonitrile] and `COc1ccccc1-c1cc(C#N)c(N2CCN(C(=O)c3ccco3)[C@H](C)C2)nc1C(C)C` [Compound 176, (R)-2-(4-(furan-2-carbonyl)-3-methylpiperazin-1-yl)-6-isopropyl-5-(2-methoxyphenyl)nicotinonitrile] fall in the same range of IC50: 1 to 5 µM for the first, 1 to 5 µM for the second.

`CC(C)c1nc(N2CCN(C(=O)c3ccoc3)[C@H](C(C)C)C2)c(C#N)cc1-c1ccc(C(F)(F)F)cc1` [Compound 195] and `CC(C)c1nc(N2CCN(C(=O)c3ccoc3)C(C)C2)c(C#N)cc1-c1ccccc1` (centres unmarked) [Compound 120, 2-(4-(furan-3-carbonyl)-3-methylpiperazin-1-yl)-6-isopropyl-5-phenylnicotinonitrile] fall in the same range of IC50: 1 to 5 µM for the first, 1 to 5 µM for the second.

`COCCC(=O)N1CCN(c2nc(C3CC3)c(-c3ccc(OC)c(OC)c3)cc2C#N)C[C@H]1C` [Compound 237, (R)-6-cyclopropyl-5-(3,4-dimethoxyphenyl)-2-(4-(3-methoxypropanoyl)-3-methylpiperazin-1-yl)nicotinonitrile] and `COCCC(=O)N1CCN(c2nc(C(C)C)c(-c3ccc(OC)c(OC)c3)cc2C#N)C[C@H]1C` [Compound 223, (R)-5-(3,4-dimethoxyphenyl)-6-isopropyl-2-(4-(3-methoxypropanoyl)-3-methylpiperazin-1-yl)nicotinonitr-ile] cannot be ordered by IC50: 1 to 5 µM for the first, at most 1 µM for the second.

`CC(C)c1nc(N2CCN(C(=O)Cc3ccccc3)C(C)C2)c(C#N)cc1-c1ccccc1` (centres unmarked) [Compound 139, 6-isopropyl-2-(3-methyl-4-(2-phenylacetyl)piperazin-1-yl)-5-phenylnicotinonitrile] and `Cc1cccc(-c2cc(C#N)c(N3CCN(C(=O)Cc4cccs4)[C@H](C)C3)nc2C(C)C)c1` [Compound 192, (R)-6-isopropyl-2-(3-methyl-4-(2-(thiophen-2-yl)acetyl)piperazin-1-yl)-5-m-tolylnicotinonitrile] fall in the same range of IC50: 1 to 5 µM for the first, 1 to 5 µM for the second.

`COCCC(=O)N1CCN(c2nc(C(C)C)c(-c3ccc(F)cc3)cc2C#N)C[C@H]1C` [Compound 207, (R)-5-(4-fluorophenyl)-6-isopropyl-2-(4-(3-methoxypropanoyl)-3-methylpiperazin-1-yl)nicotinonitrile] and `COCCC(=O)N1CCN(c2nc(C(C)C)c(-c3ccc4c(c3)OCCO4)cc2C#N)C[C@H]1C` [Compound 233, (R)-5-(2,3-dihydrobenzo[b][1,4]dioxin-6-yl)-6-isopropyl-2-(4-(3-methoxypropanoyl)-3-methylpiperazin-1-yl)nicotinonitrile] cannot be ordered by IC50: at most 1 µM for the first, 1 to 5 µM for the second.

First: COCCC(=O)N1CCN(c2nc(C3CC3)c(-c3ccc(C)c(F)c3)c(C)c2C#N)C[C@H]1C [Compound 258, (R)-6-cyclopropyl-5-(3-fluoro-4-methylphenyl)-2-(4-(3-methoxypropanoyl)-3-methylpiperazin-1-yl)-4-methylnicotinonitrile]
Second: COc1ccccc1-c1cc(C(C)C)nc(N2CCN(C(=O)c3ccco3)C(C)C2)c1C#N (centres unmarked) [Compound 147, 2-(4-(furan-2-carbonyl)-3-methylpiperazin-1-yl)-6-isopropyl-4-(2-methoxyphenyl)nicotinonitrile]
The IC50 of the first is lower: at most 1 µM for the first, 5 to 15 µM for the second.

`CCOc1ccccc1-c1cc(C(C)C)nc(N2CCN(C(=O)c3ccoc3)[C@H](C)C2)c1C#N` [Compound 163, (R)-4-(2-ethoxyphenyl)-2-(4-(furan-3-carbonyl)-3-methylpiperazin-1-yl)-6-isopropylnicotinonitrile] and `CC(C)c1cc(-c2cccc(F)c2)c(C#N)c(N2CC(C)N(C(=O)Cc3ccccc3)C(C)C2)n1` (centres unmarked) [Compound 135, 2-(3,5-dimethyl-1-(2-phenylacetyl)piperazin-1-yl)-4-(3-fluorophenyl)-6-isopropylnicotinonitrile] fall in the same range of IC50: 1 to 5 µM for the first, 1 to 5 µM for the second.

`CC(C)c1cc(-c2ccccc2)c(C#N)c(N2CCN(C(=O)c3c[nH]c4ccccc34)CC2c2ccccc2)n1` (centres unmarked) [Compound 169, 2-(4-(1H-indole-3-carbonyl)-2-phenylpiperazin-1-yl)-6-isopropyl-4-phenylnicotinonitrile] was tested, and the IC50 was 1 to 5 µM.

Same assay, conditions: enzyme assay of Example 12; read-out: IDH1R132H IC50

`COCCC(=O)N1CCN(c2nc(C3CC3)c(-c3cccc(N(C)C)c3)c(C)c2C#N)C[C@H]1C` [Compound 362, (R)-6-cyclopropyl-5-(3-dimethylamino-phenyl)-2-[4-(3-methoxy-propionyl)-3-methyl-piperazin-1-yl]-4-methyl-nicotinonitrile] and `COCCC(=O)N1CCN(c2nc(C3CC3)c(-c3ccc(S(C)(=O)=O)cc3)c(C)c2C#N)C[C@H]1C` [Compound 319, (R)-6-cyclopropyl-5-(4-methanesulfonyl-phenyl)-2-[4-(3-methoxy-propionyl)-3-methyl-piperazin-1-yl]-4-methyl-nicotinonitrile] cannot be ordered by IC50: under 0.5 µM for the first, under 0.5 µM for the second.

`COCCC(=O)N1CCN(c2nc(C3CC3)c(N3CCN(C(=O)c4ccccc4)CC3)cc2C#N)C[C@H]1C` [Compound 379, (R)-5-(4-benzoylpiperazin-1-yl)-6-cyclopropyl-2-(4-(3-methoxypropanoyl)-3-methylpiperazin-1-yl)nicotinonitrile] and `CCc1ccccc1-c1cc(C#N)c(N2CCN(C(=O)CCOC)[C@H](C)C2)nc1C1CC1` [Compound 334, (R)-6-cyclopropyl-5-(2-ethyl-phenyl)-2-[4-(3-methoxy-propionyl)-3-methyl-piperazin-1-yl]-nicotinonitrile] fall in the same range of IC50: 0.5 to 1 µM for the first, 0.5 to 1 µM for the second.

First: N#Cc1cc(-c2cnnc(O)c2)c(C2CC2)nc1N1CCN(C(=O)C2CC2)[C@H](C2CC2)C1 [Compound 616, (R)-2-(4-(cyclopropanecarbonyl)-3-cyclopropylpiperazin-1-yl)-6-cyclopropyl-5-(6-hydroxypyridazin-4-yl)nicotinonitrile]
Second: N#Cc1cc(Cc2ccnc(Cl)c2)c(C2CC2)nc1N1CCN(C(=O)C2CC2)[C@H](C2CC2)C1 [Compound 685, (R)-5-((2-chloropyridin-4-yl)methyl)-2-(4-(cyclopropanecarbonyl)-3-cyclopropylpiperazin-1-yl)-6-cyclopropylnicotinonitrile]
The IC50 of the first is lower: under 0.5 µM for the first, 1 to 10 µM for the second.

Compared with `C=Cc1cnnc(-c2c(C3CC3)nc(N3CCN(C(=O)C[C@@H]4CCO4)[C@H](C4CC4)C3)c(C#N)c2C)c1` [Compound 780, 6-cyclopropyl-2-((R)-3-cyclopropyl-4-(2-((S)-oxetan-2-yl)acetyl)piperazin-1-yl)-4-methyl-5-(5-vinylpyridazin-3-yl)nicotinonitrile], `Cc1c(C#N)c(N2CCN(C(=O)C3CC3)[C@H](C3CC3)C2)nc(C2CC2)c1-c1cn[nH]c1` [Compound 478, (R)-2-(4-(cyclopropanecarbonyl)-3-cyclopropylpiperazin-1-yl)-6-cyclopropyl-4-methyl-5-(1H-pyrazol-4-yl)nicotinonitrile] is higher in IC50: under 0.5 µM for the first, 0.5 to 1 µM for the second. The first is the more potent here.

`C=Cc1cc(-c2cc(C#N)c(N3CCN(C(=O)CO)[C@H](C)C3)nc2C2CC2)ccn1` [Compound 632, (R)-2-cyclopropyl-6-(4-(2-hydroxyacetyl)-3-methylpiperazin-1-yl)-2′-vinyl-3,4′-bipyridine-5-carbonitrile] and `C[C@@H]1CN(c2nc(C3CC3)c(-c3cccc4ncoc34)cc2C#N)CCN1C(=O)C1CC1` [Compound 482, (R)-5-(benzo[d]oxazol-7-yl)-2-(4-(cyclopropanecarbonyl)-3-methylpiperazin-1-yl)-6-cyclopropylnicotinonitrile] cannot be ordered by IC50: under 0.5 µM for the first, under 0.5 µM for the second.

`C=Cc1ccnc(Nc2cc(C#N)c(N3CCN(C(=O)CCCCC)[C@H](C4CC4)C3)nc2C2CC2)c1` [Compound 830, (R)-6-cyclopropyl-2-(3-cyclopropyl-4-hexanoylpiperazin-1-yl)-5-(4-vinylpyridin-2-ylamino)nicotinonitrile] and `N#Cc1cc(Nc2ccnc(CO)c2)c(C2CC2)nc1N1CCN(C(=O)C[C@H]2CCO2)[C@H](C2CC2)C1` [Compound 824, 6-cyclopropyl-2-((R)-3-cyclopropyl-4-(2-((R)-oxetan-2-yl)acetyl)piperazin-1-yl)-5-((2-(hydroxymethyl)pyridin-4-yl)amino)nicotinonitrile] cannot be ordered by IC50: under 0.5 µM for the first, under 0.5 µM for the second.

`COCCC(=O)N1CCN(c2nc(C3CC3)c(Nc3cnc4ccccc4c3)cc2C#N)C[C@H]1C` [Compound 339, (R)-6-cyclopropyl-2-(4-(3-methoxypropanoyl)-3-methylpiperazin-1-yl)-5-(quinolin-3-ylamino)nicotinonitrile] and `COCCC(=O)N1CCN(c2nc(C3CC3)c(-c3ccc(C(=O)N(C)OC)cc3)cc2C#N)C[C@H]1C` [Compound 656, (R)-4-(5-cyano-2-cyclopropyl-6-(4-(3-methoxypropanoyl)-3-methylpiperazin-1-yl)pyridin-3-yl)-N-methoxy-N-methylbenzamide] fall in the same range of IC50: 0.5 to 1 µM for the first, 0.5 to 1 µM for the second.

First: CCO[C@H]1C[C@@H]1C(=O)N1CCN(c2nc(C3CC3)c(-c3ccc(F)cc3)cc2C#N)C[C@H]1C1CC1 [Compound 548, 6-cyclopropyl-2-((R)-3-cyclopropyl-4-((1S,2S)-2-ethoxycyclopropanecarbonyl)piperazin-1-yl)-5-(4-fluorophenyl)nicotinonitrile]
Second: COCCC(=O)N1CCN(c2nc(C3CC3)c(-c3cnnc(OS(=O)(=O)C(F)(F)F)c3)cc2C#N)C[C@H]1C [Compound 614, (R)-5-(5-cyano-2-cyclopropyl-6-(4-(3-methoxypropanoyl)-3-methylpiperazin-1-yl)pyridin-3-yl)pyridazin-3-yl trifluoromethanesulfonate]
The IC50 of the first is higher: 0.5 to 1 µM for the first, under 0.5 µM for the second. The second is the more potent here.

Work on `COCCC(=O)N1CCN(c2nc(C3CC3)c(-c3cccc(OC)c3F)c(C)c2C#N)C[C@H]1C` [Compound 324, (R)-6-cyclopropyl-5-(2-fluoro-3-methoxy-phenyl)-2-[4-(3-methoxy-propionyl)-3-methyl-piperazin-1-yl]-4-methyl-nicotinonitrile] yielded an IC50 of 0.5 to 1 µM.

Reference: patent publication US9856279B2 (AGIOS PHARMACEUTICALS, INC, priority 2011, dated 2018)
